{"source": "paper PMC10610134", "about": "“Verubulin (Azixa) Analogues with Increased Saturation: Synthesis, SAR and Encapsulation in Biocompatible Nanocontainers Based on Ca^2+ or Mg^2+ Cross-Linked Alginate” (Pharmaceuticals, 2023)", "key": {"[1]": {"system": "human breast cancer cell line MCF7′", "test": "MTT cytotoxicity assay, MCF7′", "assay_type": "cell-based", "conditions": "MCF7, 64 h treatment, MTT, read-out: IC50, nM MCF7′", "description": "(§1) The obtained series of verubulin analogues 2a–r (which also included three by-products isolated in the reactions according to Scheme 2) were initially evaluated for cytotoxicity against commonly used human breast cancer cell line MCF7′ (fast-growth subclone), human lung epithelial carcinoma cell line A549 and etiologically non-cancer immortalized lung fibroblast cell line VA13 (WI38 subline 2RA). Cytotoxicity against immortalized human embryonic kidney cell line HEK293T, characterized by a high growth rate, was also studied regarding cytotoxicity against non-cancerous fast-growth cells. A standard MTT assay was performed; verubulin (1) served as a positive reference. The data obtained are presented in Table 1 (for dose–response curves, see Supplementary Materials).\n(§2) Human breast cancer cell line MCF7′ and human lung adenocarcinoma cell line A549 were kindly provided by Dr. S. Dmitriev (Lomonosov Moscow State University), immortalized human fibroblast cell line VA13 (WI38 subline 2RA) was kindly provided by Dr. M. Rubtsova (Lomonosov Moscow State University), human embryonic kidney HEK293T cell line was kindly provided by Dr. E. Knyazhanskaya (Lomonosov Moscow State University). MCF7′, VA13, A549 and HEK293T cell lines were maintained in DMEM/F-12 (Thermo Fisher Scientific, Waltham, MA, USA) culture medium containing 10% fetal bovine serum (Thermo Fisher Scientific, Waltham, MA, USA) and 50 μg/mL penicillin and 0.05 mg/mL streptomycin at 37 °C (Thermo Fisher Scientific, Waltham, MA, USA) in 5% CO2. Cells were maintained at 37 °C in a humidified MCO-18AC incubator (Sanyo, Tokyo, Japan) supplied with 5% CO2. Cell cultures were tested for the absence of mycoplasma and validated by STR.\n(§3) The cytotoxicity of the substances was tested using the 3-(4,5-dimethylthiazol-2-yl)2,5-diphenyl tetrazolium bromide (MTT) assay with some modifications. A total of 2500 cells per well for the MCF7′, HEK293T, A549 cell lines or 4000 cells per well for the VA-13 cell line were plated out in 135 μL of DMEM-F12 media (Gibco, Thermo Fisher Scientific, Waltham, MA, USA) in a 96-well plate and incubated in the 5% CO2 incubator for the first 20 h without treatment. Then, 15.8 μL of media–DMSO solutions of tested substances (final DMSO concentrations in the media were 0.5% or less) was added to the cells (triplicate each) and cells were treated for 64 h with 0.023 mg/L–50 mg/L (eight dilutions) of compounds 2f,n,o,r; 1.14 μg/L–2.5 mg/L (eight dilutions) of compounds 2a,b,d,g,h,k,l,p,q; 57.2 ng/L–125 μg/L (eight dilutions) of compounds 2e,i,j; 22.9 ng/L–50 μg/L (eight dilutions) of compounds 1,2c,m. Doxorubicin was used as a control substance. Then, the MTT reagent (Paneco LLC, Moscow, Russia) was added to cells up to a final concentration of 0.5 g/L (10 × stock solution in PBS was used) and incubated for 2 h at 37 °C in the incubator, under an atmosphere of 5% CO2. Then, the MTT solution was discarded, and 140 μL of DMSO (PharmaMed LLC, Moscow, Russia) was added. The plates were swayed on a shaker (120 rpm) to dissolve the formazan. The absorbance was measured using a microplate reader (VICTOR X5 Light Plate Reader, PerkinElmer, Waltham, MA, USA) at a wavelength of 555 nm (in order to measure formazan concentration). The results were used to construct dose–response graphs and to estimate IC50 values (IC50 is the concentration resulting in half of the maximal cytotoxic effect) with GraphPad Prism V, GraphPadSoftware, Inc., San Diego, CA, USA."}, "[2]": {"system": "human lung epithelial carcinoma cell line A549", "test": "MTT cytotoxicity assay, A549", "assay_type": "cell-based", "conditions": "A549, 64 h treatment, MTT, read-out: IC50, nM A549", "description": "as §1, §2, §3"}, "[3]": {"system": "immortalized lung fibroblast cell line VA13 (WI38 subline 2RA)", "test": "MTT cytotoxicity assay, VA13", "assay_type": "cell-based", "conditions": "Homo sapiens, VA-13; 64 h treatment, MTT; read-out: IC50, nM VA13", "description": "as §1, §2, §3"}, "[4]": {"system": "immortalized human embryonic kidney cell line HEK293T", "test": "MTT cytotoxicity assay, HEK293T", "assay_type": "cell-based", "conditions": "HEK-293T, 64 h treatment, MTT, read-out: IC50, nM HEK293T", "description": "as §1, §2, §3"}, "[5]": {"system": "MCF7′, A549, VA13, HEK293T cell lines", "test": "MTT cytotoxicity, SAR statements over the cell line panel", "assay_type": "cell-based, human", "description": "as §1, §3"}, "[6]": {"system": "tubulin (Tb) and microtubule-associated proteins (MAPs) from mouse brains", "test": "Tubulin + MAP polymerization assay", "assay_type": "biochemical", "conditions": "GTP-dependent polymerization, read-out: IC50 of tubulin polymerization (initial rates, optical density at 355 nm)"}, "HCT116 cells": {"system": "HCT116 cells", "test": "Apoptosis induction, Annexin V / 7-AAD flow cytometry", "assay_type": "cell-based, human", "procedure": "Apoptosis is an important and active regulatory pathway of cell growth and proliferation. Annexin V is a calcium-dependent phospholipid-binding protein with a high affinity for phosphatidylserine (PS), a membrane component normally localized to the internal face of the cell membrane. Early in the apoptotic pathway, molecules of PS are translocated to the outer surface of the cell membrane where Annexin V can readily bind them.\nAfter incubation, the cells were harvested by trypsinization, precipitated by centrifugation (3000 rpm), washed with cold PBS and recentrifuged. Aliquots of cells were processed as recommended in the Muse Annexin V& Dead Cell Kit (Luminex Corporation, Austin, TX, USA). The results were recorded on a Muse Cell Analyzer flow cytometer (Merck, Rahway, NJ, USA)."}}}
{"smiles": "COc1ccc(N(C)c2nc(C)nc3c2CCCC3)cc1", "note": "[Compound 2c, N-(4-methoxyphenyl)-N,2-dimethyl-5,6,7,8-tetrahydroquinazolin-4-amine]", "values": [{"measurement": "IC50", "setting": "[1]", "result": "3.6 ± 0.4", "unit": "nM"}, {"measurement": "IC50", "setting": "[2]", "result": "2.7 ± 0.4", "unit": "nM"}, {"measurement": "IC50", "setting": "[3]", "result": "1.6 ± 0.4", "unit": "nM"}, {"measurement": "IC50", "setting": "[4]", "result": "2.9 ± 0.5", "unit": "nM"}, {"measurement": "cytotoxicity, in words", "setting": "[5]; MTT, 64 h", "result": "retained high cytotoxicity of the parent molecule"}, {"measurement": "selectivity towards tumor cells", "setting": "[5]; pair A549/VA13", "result": "no selectivity"}, {"measurement": "IC50", "setting": "[6]", "result": "7200 ± 1900", "unit": "nM"}, {"measurement": "apoptotic cells, early plus late", "setting": "HCT116 cells; 2 × IC50, 48 h, HCT116", "result": 30, "unit": "%"}, {"measurement": "Live (viable cells)", "setting": "HCT116 cells; human, 48 h", "result": 69.45, "unit": "%"}]}
